Experimental data taken from PubChem BioAssay (NCI).
Several values for one entry are separate records, joined by “and”; a condition that tells them apart may be missing. Equal values may be shown once.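 Protocol summary: plate cells (96-well), add compound at 5 concentrations, incubate 48 h, interpolate endpoints linearly. GI50 = concentration required for 50% inhibition of growth. TGI denotes the concentration required for complete inhibition of growth.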

Legend:
Experiment in all cases: growth of human tumour cells (NCI), 48 h
[1] = test system: NCI-H23 lung
[2] = test system: COLO 205 colon
[3] = test system: SF-268 CNS
[4] = test system: TK-10 renal
[5] = test system: OVCAR-5 ovarian
[6] = test system: RXF 393 renal
[7] = test system: HCT-15 colon
[8] = test system: HCT-116 colon
[9] = test system: UACC-62 melanoma
[10] = test system: NCI/ADR-RES ovarian

| SMILES | TGI [1] [µM] | TGI [2] [µM] | TGI [3] [µM] | TGI [4] [µM] | TGI [5] [µM] | TGI [6] [µM] | TGI [7] [µM] | TGI [8] [µM] | TGI [9] [µM] | GI50 [1] | GI50 [2] [µM] | GI50 [3] | GI50 [4] [µM] | GI50 [6] [µM] | GI50 [7] | GI50 [8] | GI50 [9] | GI50 [10] | TGI [10] [µM] | GI50 [5] [µM] |
| --- | --- | --- | --- | --- | --- | --- | --- | --- | --- | --- | --- | --- | --- | --- | --- | --- | --- | --- | --- | --- |
| CC1(C)C(=O)C(C)(C)C1=NNC(N)=S | > 100 | > 100 | > 100 | > 100 | > 100 | > 100 | > 100 | > 100 | > 100 | – | – | – | – | – | – | – | – | – | – | – |
| c1ccc2c(c1)Cc1c(Cc3csc4ccccc34)ccc3cccc-2c13 | > 100 | > 100 | > 100 | – | > 100 | > 100 | > 100 | > 100 | > 100 | – | – | – | – | – | – | – | – | – | – | – |
| COc1cc2c3c(n(CCCNCCCNCCN)c(=O)c2cc1OC)-c1cc2c(cc1C3=O)OCO2 | 78.7 | > 100 | > 100 | > 100 | – | > 100 | > 100 | 57.9 | > 100 | 24.7 µM | 23.8 | > 100 µM | 53.7 | > 100 | > 100 µM | 23 µM | 37.1 µM | – | – | – |
| CN(C)Cc1ccc(NC(=O)c2cncc(C#Cc3cnc(N)c4ncccc34)c2)cc1F | 34 | – | 4.24 | 34.9 | 3.92 | – | 3.35 | 3.48 | 3.53 | 13.7 µM | – | 2.25 µM | 14.5 | – | 1.73 µM | 1.8 µM | 1.83 µM | 2.2 µM | 4.54 | 2.08 |
| O=C(CCC(=O)Nc1cccc(C(F)(F)F)c1)CC(=O)c1ccc2ccccc2c1 | > 100 | > 100 | > 100 | > 100 | > 100 | – | > 100 | > 100 | > 100 | – | – | – | – | – | – | – | – | – | – | – |
| COc1ccc(-c2cn(-c3ccc(OC)c(OC)c3)c(=O)[nH]2)cc1 | > 100 | > 100 | > 100 | > 100 | > 100 | – | > 100 | > 100 | > 100 | > 100 µM | > 100 | > 100 µM | > 100 | – | > 100 µM | > 100 µM | > 100 µM | 85.8 µM | > 100 | > 100 |
| CC1=CP(=O)(c2ccccc2)C=C(C)C1=C(Cl)Cl (stereo not drawn) | 34.9 | 16.4 | 42.4 | 43.3 | – | 33.5 | – | 10.1 | 21.7 | – | – | – | – | – | – | – | – | – | – | – |
| CC(C)COC1Sc2ccccc2S1 | 53.4 | 89.2 | 66.3 | 43 | – | 34.6 | 66 | – | 25.8 | – | – | – | – | – | – | – | – | – | – | – |
| C(=C\C(Sc1ccccc1)c1ccccc1)/NNC1=NC(c2ccccc2)C(c2ccccc2)=NN1 (stereo not drawn) | > 100 | > 100 | > 100 | > 100 | > 100 | – | > 100 | > 100 | > 100 | – | – | – | – | – | – | – | – | – | – | – |
| CC[C@H](C)[C@H](NC(=O)[C@H]1CCCCN1C)C(=O)N(C)[C@H](C[C@@H](OC(C)=O)c1cccc(C(=O)N[C@@H](Cc2ccccc2)C[C@H](C)C(=O)O)n1)C(C)C | > 25 | 0.0143 | > 25 | > 25 | > 25 | – | > 25 | 4.16 | > 25 | 0.00356 µM and 0.0025 µM | 0.00187 | 0.00435 µM and 0.0025 µM | – | – | 0.0064 µM and 0.0025 µM | 0.00225 µM and 0.0025 µM | 0.00038 µM and 0.0025 µM | 0.0584 µM and 0.00946 µM | > 25 | – |
| N#CC1(C#N)C=CC(=C2OCC3CCCN23)C=C1 (stereo not drawn) | – | > 100 | > 100 | > 100 | > 100 | > 100 | > 100 | > 100 | > 100 | – | – | – | – | – | – | – | – | – | – | – |
| O=C(Nc1ccc(Cl)cc1C(=O)O)c1ccc([N+](=O)[O-])cc1 | – | 39.4 | > 100 | 86.4 | 55 | – | 46.3 | 36.9 | 45.6 | – | – | – | – | – | – | – | – | – | – | – |
| CCOC(=N)CC(=O)Nc1ccccc1 | > 46.4 | > 46.4 | > 46.4 | > 46.4 | > 100 | > 46.4 | > 46.4 | > 46.4 | > 100 | – | – | – | – | – | – | – | – | – | – | – |
| COCCc1n(Cc2ccc3ccccc3c2)c2ccccc2[n+]1Cc1ccc2ccccc2c1 | – | – | – | 2.65 | 2.47 | – | – | – | 1.52 | – | – | – | 1.26 | – | – | – | 0.384 µM | 11.2 µM | 53 | 1.11 |
| O=C(CC1C(=O)Nc2ccccc2S1(=O)=O)Nc1ccc(Cl)cc1 (stereo not drawn) | > 100 | – | 28.6 | 54.5 | > 100 | 38.5 | > 100 | > 100 | > 100 | – | – | – | – | – | – | – | – | – | – | – |
| CC(=O)NNc1nc(C)c(C(=O)NNC(=O)C(=O)Nc2c([N+](=O)[O-])ccc(C)c2C)s1 | > 100 | > 100 | > 100 | > 100 | > 100 | – | > 100 | > 100 | > 100 | – | – | – | – | – | – | – | – | – | – | – |

| SMILES | TGI [1] [µM] | TGI [2] [µM] | TGI [3] [µM] | TGI [4] [µM] | TGI [5] [µM] | TGI [6] [µM] | TGI [7] [µM] | TGI [8] [µM] | TGI [9] [µM] | GI50 [1] | GI50 [2] [µM] | GI50 [3] | GI50 [4] [µM] | GI50 [6] [µM] | GI50 [7] | GI50 [8] | GI50 [9] | GI50 [10] | TGI [10] [µM] | GI50 [5] [µM] |
| --- | --- | --- | --- | --- | --- | --- | --- | --- | --- | --- | --- | --- | --- | --- | --- | --- | --- | --- | --- | --- |
| CCCCCCCCCCCCCCCC(=O)OCCOCCOCCOCCOCCOC(=O)CCCCCCCCCCCCCCC | > 100 | > 100 | > 100 | > 100 | > 100 | > 100 | > 100 | > 100 | > 100 | – | – | – | – | – | – | – | – | – | – | – |
| O=C(N/C(=C\c1ccccc1O)c1nc2ccccc2[nH]1)c1ccccc1 | > 100 | > 100 | > 100 | 90.8 | > 100 | > 100 | > 100 | > 100 | > 100 | – | – | – | – | – | – | – | – | – | – | – |
| CCN1C(=O)N(CC)C2C1NN=c1s/c(=C3\C(=O)N(C4CCCC4)c4ccccc43)c(=O)n12 (stereo not drawn) | 13.5 | 12.2 | 27.6 | 9.89 | > 100 | 3.2 | > 100 | – | 36 | 2.49 µM | 1.89 | 2.38 µM | 2.78 | 0.603 | 0.479 µM | – | 0.465 µM | – | – | 3.75 |
| CC1C=CC(C(N)C(=O)O)O1 (stereo not drawn) | > 100 | > 100 | > 100 | – | > 100 | > 100 | > 100 | > 100 | > 100 | – | – | – | – | – | – | – | – | – | – | – |
| CCCCNC(=S)OCCC(C)CCCC(C)C (stereo not drawn) | > 100 | – | > 100 | > 100 | > 100 | > 100 | > 100 | > 100 | > 100 | – | – | – | – | – | – | – | – | – | – | – |
| CC(=O)c1ccccc1NC(=O)C(=O)C(C(=O)c1ccccc1-c1ccccc1)C1OC(=O)c2ccccc21 (stereo not drawn) | 31 | 46.1 | – | 32 | 64.9 | 25 | 34.9 | 32.5 | 38.8 | – | – | – | – | – | – | – | – | – | – | – |
| NS(=O)(=O)c1ccc(NC(=O)C2C(=O)C(=O)N(c3ccc(S(N)(=O)=O)cc3)C2=O)cc1 (stereo not drawn) | > 100 | > 100 | > 100 | > 100 | > 100 | > 100 | > 100 | > 100 | > 100 | – | – | – | – | – | – | – | – | – | – | – |
| CCOC(=O)c1[nH]c2cc(OC)c(OC)cc2c1CN(C)C | > 100 | – | > 100 | > 100 | > 100 | > 100 | > 100 | > 100 | > 100 | – | – | – | – | – | – | – | – | – | – | – |
| COc1cc([N+](=O)[O-])c(S(=O)(=O)O)cc1-n1nc(C(=O)Nc2ccccc2)n[n+]1-c1cc(S(=O)(=O)[O-])c([N+](=O)[O-])cc1OC | > 100 | > 100 | > 100 | > 100 | > 100 | – | > 100 | > 100 | > 100 | – | – | – | – | – | – | – | – | – | > 100 | – |
| O=C1C=C2CCCC2C(C(=O)O)(C(=O)O)C1 (stereo not drawn) | > 100 | > 100 | > 100 | > 100 | – | > 100 | > 100 | > 100 | > 100 | – | – | – | – | – | – | – | – | – | – | – |
| Cc1ccc(N=C2N=C(N3CC(C)OC(C)C3)c3ccccc32)cc1 (stereo not drawn) | 78.8 | > 100 | > 100 | > 100 | > 100 | 34.4 | > 100 | 48.8 | > 100 | – | – | – | – | – | – | – | – | – | – | – |
| COc1c(I)c(OC)c2c(c1I)O[C@@H]1OCC[C@H]21 | > 100 | 57.8 | – | > 100 | > 100 | 72.4 | > 100 | > 100 | > 100 | – | – | – | – | – | – | – | – | – | – | – |
| Cc1ccc(/C=C/C(=O)c2sc(-n3nc(-c4ccccc4)cc3-c3ccccc3)nc2C)cc1 | > 100 | > 100 | > 100 | > 100 | > 100 | > 100 | > 100 | – | > 100 | – | – | – | – | – | – | – | – | – | – | – |
| COc1cc2ncnc(Nc3ccc(Oc4ccnc(C)c4)c(C)c3)c2cc1NC(=O)CC1CCSS1 (stereo not drawn) | 2.5 | – | 2.17 | 1.84 | > 50 | > 50 | 2.31 | – | 3.71 | 1.07 µM | – | 0.94 µM | 0.896 | 1.5 | 1.04 µM | – | 1.26 µM | 2.14 µM | > 50 | 1.87 |
| CCc1cc2c(O)c(c1)Cc1cc(CC)cc(c1O)Cc1cc(CC)cc(c1O)Cc1cc(CC)cc(c1O)Cc1cc(CC)cc(c1O)Cc1cc(CC)cc(c1O)Cc1cc(CC)cc(c1O)C2 | > 100 | > 100 | > 100 | > 100 | > 100 | 43.3 | > 100 | > 100 | > 100 | – | – | – | – | – | – | – | – | – | – | – |
